The text below walks through data of patent publication US20250288583A1, “Treatment of Mucus Hypersecretion” (priority 2024, published 2025).

Entries after “also recorded” stand apart in the source; their conditions may differ.

The subject of one assay is nasal cavity. Put plainly: Gravimetric measurement of nasal secretions in a subject with rhinitis after NasoNeb rinsing. It counts as in vivo, human. Conditions: NasoNeb rinse 5 sec at t=0, 2, 5 hr, D-Ala-OiPr 2 mg/mL, GlyOiPr 3 mg/mL; for Weight of individual blowouts of nasal secretions (average ± s.e.m.): vehicle 0.40±0.03 g; for 10-hr nasal secretion (avg. ± s.e.m): vehicle 3.53±0.44 g. As for the experimental part:
A top-loading balance, sensitive to 1 mg, was used to measure phlegm secretions from the nose. A pre-weighed tissue paper was tared to zero, and after blowing into the tissue, the amount of exudate was recorded from the balance display. This measurement is an objective sign of nasal inflammation. Microbalances, sensitive to 1 mg, are now available online for less than $20. Conventional laboratory balances with the same capabilities are listed for $2000+ each but should now be obsolete. The convenience of an inexpensive method for quantifying phlegm output as an indicator of nasal pathology is part of the inventive steps.
FIG. 9. Inhibition of nasal secretions in a subject with rhinitis by topical administration of the preferred embodiments D-Ala-OiPr and GlyOiPr with a Nasoneb® apparatus. Rinsing of GlyOiPr and D-Ala-OiPr (dissolved 3 mg/ml and 2 mg/mL, respectively, in 1% ethanol and 2% polysorbate 80) was for 5 sec at t=0, 2, and 5 hr. Secretions were recorded for 10-15 hr per day. The 10-hr secretion (avg.±s.e.m) was vehicle 3.53±0.44 g, D-Ala-OiPr 1.70±0.27 g, GlyOiPr 1.32±0.32 g, with n=6, 5, 5 observations per group, respectively.
FIG. 10. Weights of individual blowouts of nasal secretions in a subject with rhinitis after topical administration of D-Ala-OiPr and GlyOiPr with a Nasoneb® apparatus. The vehicle or test substances were rinsed into the nasal cavity (0 mg/mL, 2 mg/mL and 3 mg/mL, respectively, for 5 sec at t=0, 2, and 5 hr). The data points are for individual “blowouts” from the nose, measured with tissue paper and balance. The data are plotted on a semi-log scale, so zero values are not shown. The average #s.e.m. for blowouts were: vehicle 0.40±0.03 g, D-Ala-OiPr 0.19±0.02 g, GlyOiPr 0.19±0.02 g, with n=70, 44, 42 observations per group, respectively.
In the first experimental step, the phlegm secretion must be accurately measured. That is, it is necessary to show what is “blown out” of the nose in patients with rhinitis (FIG. 8). The treatment goal is to reduce the accumulation of dense, slimy, viscous phlegm, which will otherwise ooze out of the nasal cavity. In practice, it was discovered that if treatment can reduce individual blowouts to <0.25 g/event, the subject with rhinitis becomes essentially “disease-free” and is able to have normal daily activities and sleep well at night. […] The top-loading microbalance method for quantifying phlegm weight is an excellent monitor of rhinitis intensity.
FIG. 9. […] The data points represent secretions recorded for 10-15 hr per day. These points were fitted by linear regression (GraphPad Prism), and the 10-hr secretion measured (avg.±s.e.m) as vehicle 3.53±0:44 g, D-Ala-OiPr 1.700:27 g; GlyOiPr 1.32±0.32 g, with n=6, 5, 5 observations per group, respectively. […]

Another assay has as its system ocular margins. Kind of assay: Cooling duration bioassay on eyelids/ocular margins. Conditions: for Duration of effects on the ocular margins, on average: test concentration 1 mg/mL. It counts as in vivo, human. The text has this: FIG. 1. Comparison of cooling duration of various p-menthanecarboxamide analogs on philtrum skin versus ocular margins. The philtrum skin is keratinized, but the ocular margins are not. The test substances numbered 1 to 11 are: D-Ala-OiPr, Gly-OiPr, D-Ala-OEt, D-Ala-OMe, D-Ala-GlynPr, GlynPr, D-Ala-OnBu, GlynBu, GlyOEt, L-Ala-OEt, and N-Me-D-Ala-OEt, respectively. Two outliers (1 and 2) were identified as preferred embodiments because they preferentially cool the ocular margins. The nasal cavity surfaces like the ocular margins are not keratinized.
Cooling agents have been assayed in various ways depending on intended use. For example, for the skin the test substance can be applied on philtrum skin, using descriptions of coolness on a scale of 0 to 3. For the ocular surface, the active ingredient can be applied to the closed eyelids using a wipe. In the oral cavity, drug applications are on the posterior dorsal surface of the tongue. For the oropharyngeal surface, the cooling agent may be applied as an orally disintegrating tablet. The ability of a cooling agent to antagonize a noxious stimuli may also be tested, using nociception from citric acid or chili pepper sauce. Responses are usually measured using a Visual Analog Scale with a numerical rating. For nasal responses, however, such procedures have not been standardized. Some endpoints to consider are open and comfortable breathing, the presence or absence of sniffles, and the secretion of phlegm.

Another assay addresses T1, TRPV1 (Homo sapiens, UniProt Q8NER1).
T1 construct: expressed in transfected cells
Put plainly: TRPV1 specificity assay in transfected cells. It counts as cell-based. Conditions: FIG. 5; capsaicin positive control.

T1 sequence (Q8NER1 whole entry, species assumed): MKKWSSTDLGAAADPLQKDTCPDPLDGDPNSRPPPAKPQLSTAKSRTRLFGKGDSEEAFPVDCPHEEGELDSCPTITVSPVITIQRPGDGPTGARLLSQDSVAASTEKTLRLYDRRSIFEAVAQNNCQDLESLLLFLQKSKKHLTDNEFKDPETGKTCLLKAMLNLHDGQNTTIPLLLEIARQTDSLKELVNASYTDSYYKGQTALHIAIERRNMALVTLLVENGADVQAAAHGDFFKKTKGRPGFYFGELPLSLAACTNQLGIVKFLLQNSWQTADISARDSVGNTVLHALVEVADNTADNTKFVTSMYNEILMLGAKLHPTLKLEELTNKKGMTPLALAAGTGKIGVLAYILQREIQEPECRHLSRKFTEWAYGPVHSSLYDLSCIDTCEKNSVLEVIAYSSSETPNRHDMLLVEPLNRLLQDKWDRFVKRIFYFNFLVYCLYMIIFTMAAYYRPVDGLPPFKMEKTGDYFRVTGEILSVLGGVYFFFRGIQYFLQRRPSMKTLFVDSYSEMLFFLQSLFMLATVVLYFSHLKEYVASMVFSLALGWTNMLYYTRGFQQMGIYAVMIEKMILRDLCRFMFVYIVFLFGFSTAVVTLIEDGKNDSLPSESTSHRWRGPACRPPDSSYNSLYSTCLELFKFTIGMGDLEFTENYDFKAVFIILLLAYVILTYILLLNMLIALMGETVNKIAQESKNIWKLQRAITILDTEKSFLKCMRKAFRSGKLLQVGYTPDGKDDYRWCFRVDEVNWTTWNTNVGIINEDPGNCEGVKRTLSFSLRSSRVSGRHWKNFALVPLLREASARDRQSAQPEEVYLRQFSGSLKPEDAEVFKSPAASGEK

Regarding `CC(C)OC(=O)[C@@H](C)NC(=O)[C@@H]1C[C@H](C)CC[C@H]1C(C)C` [D-Ala-OiPr, (R)-2-[((1R,2S,5R)-2-isopropyl-5-methyl-cyclohexanecarbonyl)amino]-propionic acid i-propyl ester], in the assay on nasal cavity, the “Weight of individual blowouts of nasal secretions (average ± s.e.m.)” value is 0.19 ± 0.02 g and the “10-hr nasal secretion (avg. ± s.e.m)” value is recorded as 1.70±0.27 g. Moreover, the “Eyelids/Ocular Surface” value in the assay on ocular margins (Table 6, cooling duration, non-keratinized) was determined as 360 min. The “Duration of effects on the ocular margins, on average” value with ocular margins was about 5 h. The “Response of cells transfected with TRPV1” value at TRPV1 is “inactive”.

`CC(C)OC(=O)CNC(=O)[C@@H]1C[C@H](C)CC[C@H]1C(C)C` [GlyOiPr, [((1R,2S,5R)-2-isopropyl-5-methyl-cyclohexanecarbonyl)-amino]-acetic acid isopropyl ester]: in the assay with nasal cavity, the “Weight of individual blowouts of nasal secretions (average ± s.e.m.)” value was 0.19 ± 0.02 g and the “10-hr nasal secretion (avg. ± s.e.m)” value turned out to be 1.32±0.32 g. The “Ocular Surface” value with ocular margins (Table 7, Gly esters) stood at 300 min. Moreover, the “Duration of effects on the ocular margins, on average” value in the assay on ocular margins is about 5 h. For the same compound, in the assay with ocular margins (test concentration increased from 1 mg/mL to 1.5 mg/mL), the “Duration on the ocular surface” value was “about 6.5 hours”. The “Response of cells transfected with TRPV1” value at TRPV1 is given as “do not respond; also recorded: activates TRPM8 but not TRPV1 or TRPA1”.
